Experimental data: patent publication US4707488A, “Dopamine-β-hydroxylase inhibitors and use thereof” (Smithkline Beckman Corporation, priority 1985, dated 1987)
Where two headings read alike, the source gives them in different places.

Legend:
[1] = biological target: T1, DBH (Bos taurus, UniProt P15101); assay: in vitro DBH inhibition, conversion of tyramine to octopamine; type: biochemical
T1 sequence (P15101 1-610): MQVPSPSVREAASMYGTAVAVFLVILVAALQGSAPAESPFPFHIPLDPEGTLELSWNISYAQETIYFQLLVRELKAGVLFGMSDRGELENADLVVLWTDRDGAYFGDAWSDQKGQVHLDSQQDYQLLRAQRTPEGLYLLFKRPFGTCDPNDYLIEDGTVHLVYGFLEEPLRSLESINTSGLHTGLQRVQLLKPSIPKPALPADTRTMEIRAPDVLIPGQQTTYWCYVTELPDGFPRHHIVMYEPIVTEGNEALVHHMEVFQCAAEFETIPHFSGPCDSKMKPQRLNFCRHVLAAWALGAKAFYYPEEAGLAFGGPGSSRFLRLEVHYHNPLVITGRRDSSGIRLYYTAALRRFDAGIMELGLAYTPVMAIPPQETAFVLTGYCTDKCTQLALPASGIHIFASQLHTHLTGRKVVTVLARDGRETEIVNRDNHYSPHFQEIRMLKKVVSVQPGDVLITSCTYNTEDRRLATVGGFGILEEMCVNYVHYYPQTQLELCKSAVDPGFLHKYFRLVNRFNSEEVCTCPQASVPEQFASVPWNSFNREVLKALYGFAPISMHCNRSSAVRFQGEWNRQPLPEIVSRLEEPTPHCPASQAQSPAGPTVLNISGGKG
Experimental: Compounds of the invention and other compounds useful in the method of the invention were screened for in vitro DBH inhibition by a standard procedure for assaying conversion of tyramine to octopamine in the presence of DBH. Octopamine was assayed following sodium periodate oxidation to p-hydroxybenzaldehyde by measuring spectrophotometric absorbance at 330 nm. Inhibition is given in molar concentration of compound at which DBH activity was halved (IC50). Melting points (mp) are given in °C. By this procedure fusaric acid has an IC50 of about 8×10^-7.

[2] = test system: peripheral dopamine (DA) and norepinephrine (NE) levels; assay: in vivo effects on peripheral dopamine (DA) and norepinephrine (NE) levels; parameters: species or system Spontaneously hypertensive rats; settings: dosed twice about 18 hours apart, sacrificed about 2 hours after second dose
Experimental: (§1) Various compounds of the invention were tested for their effects in vivo on peripheral dopamine (DA) and norepinephrine (NE) levels substantially by the procedure of DaPrada and Zurcher, Life Sci., 19, 1161, (1976). Spontaneously hypertensive rats were dosed twice, the second dose being about 18 hours after the first, and were sacrificed about 2 hours after the second dose.

[3] = mean arterial blood pressure, indwelling cannulae inserted into the tail artery; type: in vivo, Spontaneously hypertensive rats; settings: 50 mg/kg, ip
Experimental: as §1
Further, the same rats were dosed with a suspension or solution at a dose of 50 mg/kg of test compound i.p. and mean arterial blood pressure was determined with indwelling cannulae inserted into the tail artery.

[4] = Teresawa et al., Japan Cir. J. 35, 339 (1971); cited from earlier work
[5] = octopamine assayed after periodate oxidation, absorbance at 330 nm, read-out: IC50 (molar concentration of compound at which DBH activity was halved)

SMILES	IC50 [1, 5]	also measured
Fc1cc(F)cc(Cn2nnnc2S)c1 [Example 1, 1-(3,5-Difluorobenzyl)-5-mercaptotetrazole]	1500 nM	–
Sc1nnnn1CCCc1ccccc1 [Example 5, 1-(3-Phenylpropyl)-5-mercaptotetrazole]	2400 nM	–
Fc1cc(F)cc(CCCn2nnnc2S)c1 [Example 7, 1-(3-(3,5-Difluorophenyl)propyl)-5-mercaptotetrazole]	350 nM	–
Oc1ccc(CCCn2nnnc2S)cc1 [Example 11, 1-(3-(4-Hydroxyphenyl)propyl)-5-mercaptotetrazole]	790 nM	–
Oc1c(F)cc(CCCn2nnnc2S)cc1F [Example 12, 1-(3-(3,5-Difluoro-4-hydroxyphenyl)propyl)-5-mercaptotetrazole]	80 nM	–
CCCCc1ccc(C(=O)O)nc1 [Fusaric acid, fusaric acid, reference compound]	–	IC50 [1]: ~800 nM; hepatotoxicity [4]: hepatotoxic

More lines, main results first:

IC50 [1, 5]	SMILES	also measured
1000 nM	Sc1nnnn1Cc1cc(Cl)cc(Cl)c1 [Example 2, 1-(3,5-Dichlorobenzyl)-5-mercaptotetrazole]	DA/NE Ratio [2]: 0.053 ± 0.0035; DA ([2]; micrograms per gram of tissue): 0.360 ± 0.015 µg/g; NE ([2]; micrograms per gram of tissue): 6.838 ± 0.257 µg/g; reduction in mean arterial pressure [3]: significant reduction in mean arterial pressure
9200 nM	Sc1nnnn1Cc1c(Cl)cccc1Cl [Example 3, 1-(2,6-Dichlorobenzyl)-5-mercaptotetrazole]	–
15000 nM	COc1ccc(Cn2nnnc2S)cc1 [Example 4, 1-(4-Methoxybenzyl)-5-mercaptotetrazole]	–
13000 nM	Sc1nnnn1Cc1ccccc1 [Example 6, 1-Benzyl-5-mercaptotetrazole]	reduction in mean arterial pressure [3]: significant reduction in mean arterial pressure
390 nM	Sc1nnnn1CCCc1cc(Cl)cc(Cl)c1 [Example 9, 1-(3-(3,5-Dichlorophenyl)propyl)-5-mercaptotetrazole]	–
